This note sets out measurements from article PMC5218480 (PLoS ONE, 2017).

The assay relates to MV-4-11 cells. Description: Gene expression microarray analysis (Affymetrix PrimeView) and GSEA. In kind it is cell-based, human. Further details: RFU PODN (11730768_x_at) / Fold change /veh PODN (11730768_x_at) / RFU LINC00158 (11744669_a_at) / Fold change /veh LINC00158 (11744669_a_at) / RFU DUSP10 (11751237_a_at) / Fold change /veh DUSP10 (11751237_a_at) / RFU ID3 (11757404_x_at) / Fold change /veh ID3 (11757404_x_at) / RFU PLEKHG5 (11737974_s_at) / Fold change /veh PLEKHG5 (11737974_s_at) / RFU LRRC4B (11730491_at) / Fold change /veh LRRC4B (11730491_at) / RFU GIMAP4 (11747438_a_at) / Fold change /veh GIMAP4 (11747438_a_at) / RFU KRT8 (11758183_x_at) / Fold change /veh KRT8 (11758183_x_at) / RFU CNN1 (11734310_a_at) / Fold change /veh CNN1 (11734310_a_at) / RFU VPS37D (11726825_at) / Fold change /veh VPS37D (11726825_at) / RFU C10orf10 (11716522_x_at) / Fold change /veh C10orf10 (11716522_x_at) / RFU KIR2DL2 /// KIR2DL4 /// KIR2DL5A /// KIR2DL5B /// KIR2DS1 /// KIR2DS2 /// KIR2DS3 /// KIR2DS4 /// KIR3DL3 /// KIR3DL3 /// KIR3DS1 (11738374_at) / Fold change /veh KIR2DL2 /// KIR2DL4 /// KIR2DL5A /// KIR2DL5B /// KIR2DS1 /// KIR2DS2 /// KIR2DS3 /// KIR2DS4 /// KIR3DL3 /// KIR3DL3 /// KIR3DS1 (11738374_at) / RFU C1QL1 (11718748_at) / Fold change /veh C1QL1 (11718748_at) / RFU TMPRSS4 (11747572_a_at) / Fold change /veh TMPRSS4 (11747572_a_at) / RFU HAMP (11756126_x_at) / Fold change /veh HAMP (11756126_x_at) / RFU RNFT2 (11725882_a_at) / Fold change /veh RNFT2 (11725882_a_at) / RFU NR4A2 (11747474_a_at) / Fold change /veh NR4A2 (11747474_a_at) / RFU ABCC12 (11746883_a_at) / Fold change /veh ABCC12 (11746883_a_at) / RFU TMEM136 (11760407_x_at) / Fold change /veh TMEM136 (11760407_x_at) / RFU CLDN22 /// WWC2 (11732394_at) / Fold change /veh CLDN22 /// WWC2 (11732394_at) / RFU HLA-DPB1 (11760878_x_at) / Fold change /veh HLA-DPB1 (11760878_x_at) / RFU SPINT1 (11716480_a_at) / Fold change /veh SPINT1 (11716480_a_at) / RFU GAP43 (11754022_s_at) / Fold change /veh GAP43 (11754022_s_at) / RFU A4GNT (11735810_at) / Fold change /veh A4GNT (11735810_at) / RFU PRB3 (11715151_x_at) / Fold change /veh PRB3 (11715151_x_at) / RFU TUBB4B (11761932_at) / Fold change /veh TUBB4B (11761932_at) / RFU CAPN14 (11732068_a_at) / Fold change /veh CAPN14 (11732068_a_at) / RFU TMCC2 (11721928_a_at) / Fold change /veh TMCC2 (11721928_a_at) / RFU IRGQ (11745062_a_at) / Fold change /veh IRGQ (11745062_a_at) / RFU FAM174B (11720279_a_at) / Fold change /veh FAM174B (11720279_a_at) / RFU TMPRSS4 (11748680_a_at) / Fold change /veh TMPRSS4 (11748680_a_at) / RFU FAM212B (11763350_a_at) / Fold change /veh FAM212B (11763350_a_at) / RFU PLEKHG5 (11743358_a_at) / Fold change /veh PLEKHG5 (11743358_a_at) / RFU ZSCAN30 (11745921_a_at) / Fold change /veh ZSCAN30 (11745921_a_at) / RFU CMKLR1 (11741424_a_at) / Fold change /veh CMKLR1 (11741424_a_at) / RFU LOC101060620 /// MAPK8IP1 (11723275_at) / Fold change /veh LOC101060620 /// MAPK8IP1 (11723275_at) / RFU SPTSSB (11747773_x_at) / Fold change /veh SPTSSB (11747773_x_at) / RFU PRSS12 (11739890_at) / Fold change /veh PRSS12 (11739890_at) / RFU BIN1 (11741810_x_at) / Fold change /veh BIN1 (11741810_x_at) / RFU WNT11 (11732464_a_at) / Fold change /veh WNT11 (11732464_a_at) / RFU C10orf10 (11716521_a_at) / Fold change /veh C10orf10 (11716521_a_at) / RFU C5orf56 (11738089_at) / Fold change /veh C5orf56 (11738089_at) / RFU CYB561 (11721691_x_at) / Fold change /veh CYB561 (11721691_x_at) / RFU ANKRD19P (11752326_a_at) / Fold change /veh ANKRD19P (11752326_a_at) / RFU OR2T12 /// OR2T33 /// OR2T8 (11738714_s_at) / Fold change /veh OR2T12 /// OR2T33 /// OR2T8 (11738714_s_at) / RFU VCAN (11748164_a_at) / Fold change /veh VCAN (11748164_a_at) / RFU JSRP1 (11732532_at) / Fold change /veh JSRP1 (11732532_at) / RFU KRTAP10-11 (11738290_x_at) / Fold change /veh KRTAP10-11 (11738290_x_at) / RFU MYO3A (11730013_a_at) / Fold change /veh MYO3A (11730013_a_at) / RFU EBF3 (11725865_a_at) / Fold change /veh EBF3 (11725865_a_at) / RFU CAMK2N1 (11719241_x_at) / Fold change /veh CAMK2N1 (11719241_x_at) / RFU C5orf56 (11738088_a_at) / Fold change /veh C5orf56 (11738088_a_at) / RFU OLFML3 (11715873_a_at) / Fold change /veh OLFML3 (11715873_a_at) / RFU LOC100653217 /// NTM (11731650_a_at) / Fold change /veh LOC100653217 /// NTM (11731650_a_at) / RFU MAPK11 (11762145_a_at) / Fold change /veh MAPK11 (11762145_a_at) / RFU FIZ1 (11724087_x_at) / Fold change /veh FIZ1 (11724087_x_at) / RFU OASL (11726364_x_at) / Fold change /veh OASL (11726364_x_at) / RFU SOX15 (11748057_x_at) / Fold change /veh SOX15 (11748057_x_at) / RFU CD79A (11719716_a_at) / Fold change /veh CD79A (11719716_a_at) / RFU HIST1H1D (11736915_at) / Fold change /veh HIST1H1D (11736915_at) / RFU CASKIN2 (11723855_a_at) / Fold change /veh CASKIN2 (11723855_a_at) / RFU LOC730098 (11760151_x_at) / Fold change /veh LOC730098 (11760151_x_at) / RFU OR4N2 (11742367_at) / Fold change /veh OR4N2 (11742367_at) / RFU PRRT2 (11749266_a_at) / Fold change /veh PRRT2 (11749266_a_at) / RFU SNX32 (11753110_a_at) / Fold change /veh SNX32 (11753110_a_at) / RFU CDHR5 (11726645_a_at) / Fold change /veh CDHR5 (11726645_a_at) / RFU RCAN1 (11760418_a_at) / Fold change /veh RCAN1 (11760418_a_at) / RFU FAM167A (11723789_a_at) / Fold change /veh FAM167A (11723789_a_at) / RFU FAM26E (11764081_at) / Fold change /veh FAM26E (11764081_at) / RFU ISYNA1 (11749810_s_at) / Fold change /veh ISYNA1 (11749810_s_at) / RFU ACY1 (11761880_at) / Fold change /veh ACY1 (11761880_at) / RFU 11764098_at / Fold change /veh 11764098_at / RFU SAMD14 (11745864_x_at) / Fold change /veh SAMD14 (11745864_x_at) / RFU NPB (11741838_a_at) / Fold change /veh NPB (11741838_a_at) / RFU TMPRSS6 (11731388_a_at) / Fold change /veh TMPRSS6 (11731388_a_at) / RFU KRTAP10-2 (11738614_at) / Fold change /veh KRTAP10-2 (11738614_at) / RFU ARHGAP8 /// PRR5-ARHGAP8 (11727945_x_at) / Fold change /veh ARHGAP8 /// PRR5-ARHGAP8 (11727945_x_at) / RFU KRTAP5-7 /// NADSYN1 (11734609_at) / Fold change /veh KRTAP5-7 /// NADSYN1 (11734609_at) / RFU RASL12 (11751679_a_at) / Fold change /veh RASL12 (11751679_a_at) / RFU CDKN2B (11736163_a_at) / Fold change /veh CDKN2B (11736163_a_at) / RFU PRF1 (11729649_at) / Fold change /veh PRF1 (11729649_at) / RFU, ZNF638 /// ZNF638-IT1 / Fold change vs veh, ZNF638 /// ZNF638-IT1 / RFU, PANK3 / Fold change vs veh, PANK3 / RFU, SH3YL1 / Fold change vs veh, SH3YL1 / RFU, ZEB2 / Fold change vs veh, ZEB2 / RFU, NRIP1 / Fold change vs veh, NRIP1 / RFU, PTTG1IP / Fold change vs veh, PTTG1IP / RFU, CAPN2 / Fold change vs veh, CAPN2 / RFU, MED14 / Fold change vs veh, MED14 / RFU, SNORA58 / Fold change vs veh, SNORA58 / RFU, C1orf63 / Fold change vs veh, C1orf63 / RFU, LRRFIP1 / Fold change vs veh, LRRFIP1 / RFU, NDUFAF7 / Fold change vs veh, NDUFAF7 / RFU, SLC12A2 / Fold change vs veh, SLC12A2 / RFU, IBTK / Fold change vs veh, IBTK / RFU, ESF1 / Fold change vs veh, ESF1 / Fold change vs veh, TMEM50B / RFU, TAOK1 / Fold change vs veh, TAOK1 / RFU, ACBD3 / Fold change vs veh, ACBD3 / RFU, TMA16 / Fold change vs veh, TMA16 / RFU, RWDD3 / Fold change vs veh, RWDD3 / RFU, BCAT1 / Fold change vs veh, BCAT1 / RFU, EDEM3 / Fold change vs veh, EDEM3 / RFU, TMEM33 / Fold change vs veh, TMEM33 / RFU, WDR75 / Fold change vs veh, WDR75 / RFU, AHCTF1 / Fold change vs veh, AHCTF1 / RFU, TFRC / Fold change vs veh, TFRC / RFU, ZDHHC17 / Fold change vs veh, ZDHHC17 / RFU, NOM1 / Fold change vs veh, NOM1 / RFU, ARL8B / Fold change vs veh, ARL8B / RFU, ZBTB11 / Fold change vs veh, ZBTB11 / RFU, TAMM41 / Fold change vs veh, TAMM41 / RFU, KIAA1704 /// LOC100996395 / Fold change vs veh, KIAA1704 /// LOC100996395 / RFU, ING1 / Fold change vs veh, ING1 / RFU, TRMT61B / Fold change vs veh, TRMT61B / RFU, FUBP3 / Fold change vs veh, FUBP3 / RFU, TP53 / Fold change vs veh, TP53 / RFU, TNKS2 / Fold change vs veh, TNKS2 / RFU, ZFP14 / Fold change vs veh, ZFP14 / RFU, ACTR2 / Fold change vs veh, ACTR2 / RFU, PPP3R1 / Fold change vs veh, PPP3R1 / RFU, PIK3R1 / Fold change vs veh, PIK3R1 / RFU, HNRNPA1 / Fold change vs veh, HNRNPA1 / RFU, RNF170 / Fold change vs veh, RNF170 / RFU, ZNF28 / Fold change vs veh, ZNF28 / RFU, RNGTT / Fold change vs veh, RNGTT / RFU, OGT / Fold change vs veh, OGT / RFU, BRD1 / Fold change vs veh, BRD1 / RFU, MARS / Fold change vs veh, MARS / RFU, ZNF655 / Fold change vs veh, ZNF655 / RFU, FAHD1 / Fold change vs veh, FAHD1 / RFU, BDP1 / Fold change vs veh, BDP1 / RFU, LRRCC1 / Fold change vs veh, LRRCC1 / RFU, ARID1A / Fold change vs veh, ARID1A / RFU, ZNF146 / Fold change vs veh, ZNF146 / RFU, ZNF330 / Fold change vs veh, ZNF330 / RFU, GPN3 / Fold change vs veh, GPN3 / RFU, C9orf123 / Fold change vs veh, C9orf123 / RFU, N4BP2L2 / Fold change vs veh, N4BP2L2 / RFU, ARFIP1 / Fold change vs veh, ARFIP1 / RFU, FAM179B / Fold change vs veh, FAM179B / RFU, BCL10 / Fold change vs veh, BCL10 / RFU, UHRF1BP1L / Fold change vs veh, UHRF1BP1L / RFU, BET1 / Fold change vs veh, BET1 / RFU, CNOT2 / Fold change vs veh, CNOT2 / RFU, ZNF268 / Fold change vs veh, ZNF268 / Fold change vs veh, ZNF507 / RFU, DGCR2 / Fold change vs veh, DGCR2 / RFU, WDSUB1 / Fold change vs veh, WDSUB1 / Fold change vs veh, HSP90B1 /// MIR3652 / RFU, ADSS / Fold change vs veh, ADSS / RFU, GK / Fold change vs veh, GK / RFU, ZNF148 / Fold change vs veh, ZNF148 / RFU, TAF9 / Fold change vs veh, TAF9 / RFU, SLC1A5 / Fold change vs veh, SLC1A5 / RFU, SLMO2 / Fold change vs veh, SLMO2 / RFU, ABCC4 / Fold change vs veh, ABCC4 / RFU, LOC101060439 /// RAP1B / Fold change vs veh, LOC101060439 /// RAP1B / RFU, RFX7 / Fold change vs veh, RFX7 / RFU, GTPBP10 / Fold change vs veh, GTPBP10 / RFU, CNEP1R1 / Fold change vs veh, CNEP1R1 / RFU, BIVM-ERCC5 /// ERCC5 / Fold change vs veh, BIVM-ERCC5 /// ERCC5 / RFU, ILF3 / Fold change vs veh, ILF3 / RFU 11762660_at / Fold change /veh 11762660_at / RFU VCAN (11757783_s_at) / Fold change /veh VCAN (11757783_s_at) / RFU DDX43 (11728927_at) / Fold change /veh DDX43 (11728927_at) / RFU KRT8 (11758188_x_at) / Fold change /veh KRT8 (11758188_x_at) / RFU NKD1 (11759106_at) / Fold change /veh NKD1 (11759106_at) / RFU SRD5A1 (11742802_a_at) / Fold change /veh SRD5A1 (11742802_a_at) / RFU TPSAB1 /// TPSB2 (11721975_s_at) / Fold change /veh TPSAB1 /// TPSB2 (11721975_s_at) / RFU GSTM3 (11746129_a_at) / Fold change /veh GSTM3 (11746129_a_at) / RFU IL23R (11737362_x_at) / Fold change /veh IL23R (11737362_x_at) / RFU TMEM51 (11727254_a_at) / Fold change /veh TMEM51 (11727254_a_at) / RFU PIWIL2 (11732686_x_at) / Fold change /veh PIWIL2 (11732686_x_at) / RFU ORM1 (11744905_x_at) / Fold change /veh ORM1 (11744905_x_at) / RFU CCDC152 (11743942_at) / Fold change /veh CCDC152 (11743942_at) / RFU ECM1 (11717891_a_at) / Fold change /veh ECM1 (11717891_a_at) / RFU IL23R (11748794_a_at) / Fold change /veh IL23R (11748794_a_at) / RFU TNFAIP8L3 (11732012_x_at) / Fold change /veh TNFAIP8L3 (11732012_x_at) / RFU MBOAT4 (11741988_at) / Fold change /veh MBOAT4 (11741988_at) / RFU 11764193_at / Fold change /veh 11764193_at / RFU TMEM53 (11763286_at) / Fold change /veh TMEM53 (11763286_at) / RFU MAGEB2 (11727129_at) / Fold change /veh MAGEB2 (11727129_at) / RFU TMEM200A (11744735_a_at) / Fold change /veh TMEM200A (11744735_a_at) / RFU CCDC152 (11751479_a_at) / Fold change /veh CCDC152 (11751479_a_at) / RFU FAM211A (11726209_a_at) / Fold change /veh FAM211A (11726209_a_at) / RFU RGS16 (11746705_a_at) / Fold change /veh RGS16 (11746705_a_at) / RFU VCAN (11755009_s_at) / Fold change /veh VCAN (11755009_s_at) / RFU RHOB (11743442_s_at) / Fold change /veh RHOB (11743442_s_at) / RFU RGS16 (11720943_a_at) / Fold change /veh RGS16 (11720943_a_at) / RFU RGS16 (11720944_at) / Fold change /veh RGS16 (11720944_at) / RFU, VPS4B / Fold change vs veh, VPS4B / RFU, CREB1 / Fold change vs veh, CREB1 / RFU, DNAJC13 / Fold change vs veh, DNAJC13 / RFU, GNAQ / Fold change vs veh, GNAQ / RFU, CDK5R1 / Fold change vs veh, CDK5R1 / RFU, ZRANB3 / Fold change vs veh, ZRANB3 / RFU, CUL4A / Fold change vs veh, CUL4A / RFU, CCNY / Fold change vs veh, CCNY / RFU, UFL1 / Fold change vs veh, UFL1 / RFU, COG3 / Fold change vs veh, COG3 / RFU, DIAPH2 / Fold change vs veh, DIAPH2 / RFU, SKA2 / Fold change vs veh, SKA2 / RFU, AFF3 / Fold change vs veh, AFF3 / RFU, LMF1 / Fold change vs veh, LMF1 / RFU, IPO11 / Fold change vs veh, IPO11 / RFU, DFFB / Fold change vs veh, DFFB / RFU, FOXP1 / Fold change vs veh, FOXP1 / RFU, CARD8 / Fold change vs veh, CARD8 / RFU, STRN3 / Fold change vs veh, STRN3 / RFU, ADK / Fold change vs veh, ADK / RFU, RASSF2 / Fold change vs veh, RASSF2 / RFU, WIPF1 / Fold change vs veh, WIPF1 / RFU, LARP1B / Fold change vs veh, LARP1B / RFU, RASA1 / Fold change vs veh, RASA1 / RFU, RB1 / Fold change vs veh, RB1 / RFU, PPFIA1 / Fold change vs veh, PPFIA1 / RFU, MAT2A / Fold change vs veh, MAT2A / RFU, CCT5 / Fold change vs veh, CCT5 / RFU, WDR92 / Fold change vs veh, WDR92 / RFU, CUX1 / Fold change vs veh, CUX1 / RFU, TTC7A / Fold change vs veh, TTC7A / RFU, TMEM135 / Fold change vs veh, TMEM135 / RFU, DEPTOR / Fold change vs veh, DEPTOR / RFU, CPM / Fold change vs veh, CPM / RFU, DNAJB6 / Fold change vs veh, DNAJB6 / RFU, CACNA2D3 / Fold change vs veh, CACNA2D3 / RFU, DTX4 / Fold change vs veh, DTX4 / RFU, TFCP2 / Fold change vs veh, TFCP2 / RFU, GMCL1 /// GMCL1P1 / Fold change vs veh, GMCL1 /// GMCL1P1 / RFU, AEBP2 / Fold change vs veh, AEBP2 / RFU, SNHG1 /// SNORD22 /// SNORD25 /// SNORD26 /// SNORD27 /// SNORD28 /// SNORD29 /// SNORD31 / Fold change vs veh, SNHG1 /// SNORD22 /// SNORD25 /// SNORD26 /// SNORD27 /// SNORD28 /// SNORD29 /// SNORD31 / Fold change (Aza/veh), C12orf56 (ProbeSet 11735607_a_at) / Fold change (ACY-1035/veh), C12orf56 (ProbeSet 11735607_a_at) / Fold change (Aza/veh), FGFR1OP (ProbeSet 11751329_s_at) / Fold change (ACY-1035/veh), FGFR1OP (ProbeSet 11751329_s_at) / Fold change (Aza/veh), VPS36 (ProbeSet 11739960_a_at) / Fold change (ACY-1035/veh), VPS36 (ProbeSet 11739960_a_at) / RFU SYPL1 (11715823_x_at) / Fold change /veh SYPL1 (11715823_x_at) / RFU IGFBP7 (11715501_s_at) / Fold change /veh IGFBP7 (11715501_s_at) / RFU REEP3 (11722064_at) / Fold change /veh REEP3 (11722064_at) / RFU IGLL1 (11728026_x_at) / Fold change /veh IGLL1 (11728026_x_at): dose or concentration left out as unconfirmed. Particulars: MV-4-11 cells, 48 hours.

In the case of `Nc1ncn([C@@H]2O[C@H](CO)[C@@H](O)[C@H]2O)c(=O)n1` [azacitidine], the “RFU RGS16 (11720944_at)” value came to 63.78 RFU.
